Data published in patent US20240158446A1, “CYCLIC COMPOUND HAVING SELECTIVE INHIBITORY ACTION ON KRAS OVER HRAS AND NRAS” (CHUGAI SEIYAKU KABUSHIKI KAISHA, priority 2021, published 2024).
Read-outs that look alike come from different tables or passages of the source.

Experiments:
[1] = biological target: GDP-bound KRAS wild-type protein (Homo sapiens, UniProt P01116); experiment: Binding to KRAS by surface plasmon resonance (SPR), Single Cycle Kinetics
[2] = biological target: GDP-bound NRAS wild-type protein (Homo sapiens, UniProt P01111); experiment: Binding to NRAS by surface plasmon resonance (SPR), Single Cycle Kinetics; details: for NRAS/KRAS (ratio of KD value for NRAS to KD value for KRAS) / ratio of the KD value with respect to GDP-bound NRAS wild-type protein to the KD value with respect to KRAS: SPR; for NRAS/KRAS (ratio of KD value for NRAS to KD value for KRAS): GDP-bound NRAS wild-type protein vs GDP-bound KRAS wild-type protein
GDP-bound NRAS wild-type protein, sequence (P01111 whole entry): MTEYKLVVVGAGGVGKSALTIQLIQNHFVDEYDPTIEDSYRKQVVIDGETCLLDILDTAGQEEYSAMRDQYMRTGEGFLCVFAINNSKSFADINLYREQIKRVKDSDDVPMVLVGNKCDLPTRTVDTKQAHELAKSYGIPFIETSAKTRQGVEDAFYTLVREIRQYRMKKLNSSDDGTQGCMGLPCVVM

[3] = biological target: GDP-bound HRAS wild-type protein (Homo sapiens, UniProt P01112); experiment: Binding to HRAS by surface plasmon resonance (SPR), Single Cycle Kinetics; details: for HRAS/KRAS (ratio of KD value for HRAS to KD value for KRAS) / ratio of the KD value with respect to GDP-bound HRAS wild-type protein to the KD value with respect to KRAS: SPR; for HRAS/KRAS (ratio of KD value for HRAS to KD value for KRAS): GDP-bound HRAS wild-type protein vs GDP-bound KRAS wild-type protein
GDP-bound HRAS wild-type protein, sequence (P01112 whole entry): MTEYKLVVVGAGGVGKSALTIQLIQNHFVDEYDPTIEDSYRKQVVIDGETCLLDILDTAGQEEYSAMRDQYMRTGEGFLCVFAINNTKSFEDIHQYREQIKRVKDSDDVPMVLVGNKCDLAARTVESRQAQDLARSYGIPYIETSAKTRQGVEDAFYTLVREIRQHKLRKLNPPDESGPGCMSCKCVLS

[4] = test system: human lung cancer strain NCI-H441;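 note: cell proliferation inhibition after four days measured by CellTiter-Glo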
[5] = SPR, Single Cycle Kinetics, 1:1 binding model, read-out: KD value with respect to GDP-bound KRAS wild-type protein
[6] = SPR, Single Cycle Kinetics, GDP-bound KRAS wild-type protein, read-out: KRAS KD
[7] = read-out: NCI-H441 cell proliferation inhibitory activity, 50% proliferation inhibitory concentration (IC50 value), NCI-H441, four days, CellTiter-Glo
[8] = SPR, Single Cycle Kinetics, 1:1 binding model, GDP-bound KRAS wild-type protein, read-out: KRAS KD

GDP-bound KRAS wild-type protein, sequence (P01116 whole entry): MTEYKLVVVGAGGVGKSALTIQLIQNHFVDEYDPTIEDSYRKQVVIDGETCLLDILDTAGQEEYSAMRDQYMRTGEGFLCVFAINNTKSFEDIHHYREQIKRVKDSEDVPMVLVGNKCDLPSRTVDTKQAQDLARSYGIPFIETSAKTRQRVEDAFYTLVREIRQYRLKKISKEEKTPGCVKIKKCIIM

CCC[C@H]1C(=O)N[C@@H]([C@@H](C)CC)C(=O)N2CCC[C@H]2C(=O)N(C)[C@H]2C/C=C\CCN(C2=O)[C@@H](Cc2ccc(C(F)(F)F)cc2)C(=O)N(C)CC(=O)N[C@@H](CCc2cc(F)c(C(F)(F)F)c(F)c2)C(=O)N2C[C@H](OCC)C[C@H]2C(=O)N(C)C2(CCC2)C(=O)N(C)[C@@H](C2CCCC2)C(=O)N(C)[C@H](C(=O)N2CCCCC2)CC(=O)N1C [PP3114]
Kd [1, 5]: 4.5 nM
Kd [1, 6]: 4.5 nM
NRAS/KRAS (ratio of KD value for NRAS to KD value for KRAS) [2]: AA (a compound having 20 or more is denoted as AA)
ratio of the KD value with respect to GDP-bound NRAS wild-type protein to the KD value with respect to KRAS [2]: AA (a compound having 20 or more is denoted as AA)
HRAS/KRAS (ratio of KD value for HRAS to KD value for KRAS) [3]: A (a compound having 10 or more and less than 20 is denoted as A)
ratio of the KD value with respect to GDP-bound HRAS wild-type protein to the KD value with respect to KRAS [3]: A (a compound having 10 or more and less than 20 is denoted as A)
IC50 [4, 7]: 14.7 nM

CCOC[C@H]1C(=O)N[C@@H]([C@@H](C)CC)C(=O)N(C)CC(=O)N(C)[C@H]2C/C=C\CCN(C2=O)[C@@H](Cc2ccc(C)cc2)C(=O)N(C)CC(=O)N[C@@H](CCc2ccc(C(F)(F)F)c(Cl)c2)C(=O)N2C[C@@H](C)C[C@H]2C(=O)NC2(CC(C)(C)C2)C(=O)N(C)[C@@H](C2CCCC2)C(=O)N(C)[C@H](C(=O)N(C)CC)CC(=O)N1C [PP2451]
Kd [1, 6]: 0.17 nM
NRAS/KRAS (ratio of KD value for NRAS to KD value for KRAS) [2]: A (a compound having 10 or more and less than 20 is denoted as A)
HRAS/KRAS (ratio of KD value for HRAS to KD value for KRAS) [3]: A (a compound having 10 or more and less than 20 is denoted as A)
IC50 [4]: 8.6 nM

C#CCN1CC(=O)N(C)[C@H]2C/C=C\CCN(C2=O)[C@@H](Cc2ccc(C)cc2)C(=O)N(C)CC(=O)N[C@@H](CCc2cc(F)c(C(F)(F)F)c(F)c2)C(=O)N2C[C@H](OCC)C[C@H]2C(=O)NC2(CC(C)(C)C2)C(=O)N(C)[C@@H](C2CCCC2)C(=O)N(C)[C@H](C(=O)N(C)C)CC(=O)N(C)[C@@H](CCC)C(=O)N[C@@H](CC(C)C)C1=O [PP2512]
Kd [1, 6]: 2 nM
NRAS/KRAS (ratio of KD value for NRAS to KD value for KRAS) [2]: A (a compound having 10 or more and less than 20 is denoted as A)
HRAS/KRAS (ratio of KD value for HRAS to KD value for KRAS) [3]: A (a compound having 10 or more and less than 20 is denoted as A)
IC50 [4]: 109 nM

CCO[C@@H]1C[C@H]2C(=O)NC3(CC(C)(C)C3)C(=O)N(C)[C@@H](C(CC)CC)C(=O)N(C)[C@H](C(=O)N(C)C)CC(=O)N(C)[C@@H](COC)C(=O)N[C@@H]([C@@H](C)CC)C(=O)N(C3CC3)CC(=O)N(C)[C@H]3C/C=C\CCN(C3=O)[C@@H](CC3CCC(F)(F)CC3)C(=O)N(C)CC(=O)N[C@@H](CCc3ccc(Cl)c(Cl)c3)C(=O)N2C1 [PP2569]
Kd ([1]; SPR Single Cycle Kinetics, GDP-bound KRAS wild-type protein, 1:1 binding model, read-out: KRAS KD): 2.8 nM
NRAS/KRAS (ratio of KD value with respect to GDP-bound NRAS wild-type protein to KD value with respect to KRAS) ([2]; SPR KD ratio NRAS/KRAS, class symbols): AA (a compound having 20 or more is denoted as AA)
HRAS/KRAS (ratio of KD value with respect to GDP-bound HRAS wild-type protein to KD value with respect to KRAS) ([3]; SPR KD ratio HRAS/KRAS, class symbols): A (a compound having 10 or more and less than 20 is denoted as A)
IC50 [4]: 185 nM

CC[C@H](C)[C@@H]1NC(=O)[C@H](CC)N(C)C(=O)C[C@@H](C(=O)N(C)C)N(C)C(=O)[C@H](C2CCCC2)N(C)C(=O)C2(CCC2)NC(=O)CN(CC)C(=O)[C@H](CCc2cc(F)c(C(F)(F)F)c(F)c2)NC(=O)CN(C)C(=O)[C@H](Cc2ccc(C(F)(F)F)cc2)N2CC/C=C\C[C@@H](C2=O)N(C)C(=O)CN(C)C1=O [PP1143]
Kd [1, 6]: 0.17 nM
NRAS/KRAS (ratio of KD value for NRAS to KD value for KRAS) [2]: A (a compound having 10 or more and less than 20 is denoted as A)
HRAS/KRAS (ratio of KD value for HRAS to KD value for KRAS) [3]: A (a compound having 10 or more and less than 20 is denoted as A)
IC50 [4]: 75.3 nM

CC[C@H](C)[C@@H]1NC(=O)[C@H](CC)N(C)C(=O)C[C@@H](C(=O)N(C)C)N(C)C(=O)[C@H](C2CCCC2)N(C)C(=O)C2(CCC2)NC(=O)[C@@H]2COCCN2C(=O)[C@H](CCc2cc(F)c(C(F)(F)F)c(F)c2)NC(=O)CN(C)C(=O)[C@H](Cc2ccc(C(F)(F)F)cc2)N2CC/C=C\C[C@@H](C2=O)N(C)C(=O)CN(C)C1=O [PP1138]
Kd [1, 6]: 0.19 nM
NRAS/KRAS (ratio of KD value for NRAS to KD value for KRAS) [2]: A (a compound having 10 or more and less than 20 is denoted as A)
HRAS/KRAS (ratio of KD value for HRAS to KD value for KRAS) [3]: A (a compound having 10 or more and less than 20 is denoted as A)
IC50 [4]: 244 nM

CC[C@H](C)[C@@H]1NC(=O)[C@H](CC)N(C)C(=O)C[C@@H](C(=O)N2CCOCC2)N(C)C(=O)[C@H](C2CCCC2)N(C)C(=O)C2(CCC2)NC(=O)[C@@H]2CCCN2C(=O)[C@H](CCc2cc(F)c(C(F)(F)F)c(F)c2)NC(=O)CN(C)C(=O)[C@H](Cc2ccc(C(F)(F)F)cc2)N2C[C@H](C)[C@H](C)C[C@@H](C2=O)N(C)C(=O)[C@@H]2CCN2C1=O [PP1363]
Kd [1, 8]: 0.32 nM
NRAS/KRAS (ratio of KD value for NRAS to KD value for KRAS) ([2]; KD ratio class): A (a compound having 10 or more and less than 20 is denoted as A)
HRAS/KRAS (ratio of KD value for HRAS to KD value for KRAS) ([3]; KD ratio class): B (a compound having 3 or more and less than 10 is denoted as B)
IC50 [4]: 34.7 nM

CCOC[C@H]1C(=O)N[C@@H]([C@@H](C)CC)C(=O)N(C)CC(=O)N(C)[C@H]2C/C=C\CCN(C2=O)[C@@H](Cc2ccc(C)cc2)C(=O)N(C)CC(=O)N[C@@H](CCc2ccc(C(F)(F)F)c(OC)c2)C(=O)N2C[C@@H](C)C[C@H]2C(=O)NC2(CC(C)(C)C2)C(=O)N(C)[C@@H](C2CCCC2)C(=O)N(C)[C@H](C(=O)N(CC)CC)CC(=O)N1C [PP2405]
Kd [1, 6]: 0.31 nM
NRAS/KRAS (ratio of KD value for NRAS to KD value for KRAS) [2]: A (a compound having 10 or more and less than 20 is denoted as A)
HRAS/KRAS (ratio of KD value for HRAS to KD value for KRAS) [3]: A (a compound having 10 or more and less than 20 is denoted as A)
IC50 [4]: 8.6 nM

CCC[C@H]1C(=O)N[C@@H]([C@@H](C)CC)C(=O)N2CCC[C@H]2C(=O)N(C)[C@H]2C/C=C\CCN(C2=O)[C@@H](Cc2ccc(C)cc2)C(=O)N(C)CC(=O)N[C@@H](CCc2cc(F)c(C(F)(F)F)c(F)c2)C(=O)N2C[C@H](OCC)C[C@H]2C(=O)N(C)C2(CCC2)C(=O)N(C)[C@@H](C2CCCC2)C(=O)N(C)[C@H](C(=O)N2CCCC2)CC(=O)N1C [PP3117, (1S,4S,10S,13S,17S,20S,26S,28R,32S,38S,42Z)-20-cyclopentyl-32-[2-[3,5-difluoro-4-(trifluoromethyl)phenyl]ethyl]-28-ethoxy-2,14,18,21,24,36-hexamethyl-10-[(1S)-1-methylpropyl]-13-propyl-38-(p-tolylmethyl)-17-(pyrrolidine-1-carbonyl)spiro[2,8,11,14,18,21,24,30,33,36,39-undecazatetracyclo[37.5.1.0^4,8.0^26,30]pentatetracont-42-ene-23,1′-cyclobutane]-3,9,12,15,19,22,25,31,34,37,45-undecone]
Kd [1, 5]: 0.15 nM
Kd [1, 6]: 0.15 nM
NRAS/KRAS (ratio of KD value for NRAS to KD value for KRAS) [2]: A (a compound having 10 or more and less than 20 is denoted as A)
ratio of the KD value with respect to GDP-bound NRAS wild-type protein to the KD value with respect to KRAS [2]: A (a compound having 10 or more and less than 20 is denoted as A)
HRAS/KRAS (ratio of KD value for HRAS to KD value for KRAS) [3]: A (a compound having 10 or more and less than 20 is denoted as A)
ratio of the KD value with respect to GDP-bound HRAS wild-type protein to the KD value with respect to KRAS [3]: A (a compound having 10 or more and less than 20 is denoted as A)
IC50 [4, 7]: 2.6 nM

CCO[C@@H]1C[C@H]2C(=O)NC3(CCC3)C(=O)N(C)[C@@H](C3CCCC3)C(=O)N(C)[C@H](C)CC(=O)N(C)[C@@H](CC3CC3)C(=O)N[C@@H]([C@@H](C)CC)C(=O)N(C)CC(=O)N(C)[C@H]3C/C=C\CCN(C3=O)[C@@H](Cc3ccc(C)cc3)C(=O)N(C)CC(=O)N[C@@H](CCc3cc(F)c(C(F)(F)F)c(F)c3)C(=O)N2C1 [PP1410]
Kd [1, 8]: 0.32 nM
NRAS/KRAS (ratio of KD value for NRAS to KD value for KRAS) ([2]; KD ratio class): B (a compound having 3 or more and less than 10 is denoted as B)
HRAS/KRAS (ratio of KD value for HRAS to KD value for KRAS) ([3]; KD ratio class): B (a compound having 3 or more and less than 10 is denoted as B)
IC50 [4]: 51 nM

CCO[C@@H]1C[C@H]2C(=O)NC3(CCC3)C(=O)N(C)[C@@H](C3CCCC3)C(=O)N(C)[C@H](C(=O)N3CCOCC3)CC(=O)N(C)[C@@H](Cc3cccs3)C(=O)N[C@@H]([C@@H](C)CC)C(=O)N(C)CC(=O)N(C)[C@H]3CCCCCN(C3=O)[C@@H](Cc3ccc(F)cc3)C(=O)N(C)CC(=O)N[C@@H](CCc3cc(F)c(C(F)(F)F)c(F)c3)C(=O)N2C1 [PP1183]
Kd [1, 6]: 0.26 nM
NRAS/KRAS (ratio of KD value for NRAS to KD value for KRAS) [2]: B (a compound having 3 or more and less than 10 is denoted as B)
HRAS/KRAS (ratio of KD value for HRAS to KD value for KRAS) [3]: B (a compound having 3 or more and less than 10 is denoted as B)
IC50 [4]: 27.8 nM
